# Laboratory results as given in patent publication US9226503B2, “Composition and method for attraction of emerald ash borer Agrilus planipennis fairmaire (coleoptera: buprestidae)” (Her Majesty the Queen in Right of Canada, as represented by …, priority 2011, dated 2016).
# System: A. planipennis
# Assay: Field trapping 2011 experiment 2: (3Z)-lactone, (3Z)-hexenol and trap height factorial, dark green traps
# Type: in vivo, Agrilus planipennis
# Conditions: 2×2×2 factorial, lactone 3 mg/lure
# Protocol: Two trapping experiments were conducted in green and white ash plantations (F. pennsylvanica Marsch and F. americana L.) located 40-60 km southeast of Sarnia, Ontario in 2011. Trees were 20-30 yr old, 5-8 m tall, 12-18 cm in diameter, and spaced 2-3 m apart within and between rows. Five sites were used in total: four were green ash and the fifth was a white ash plantation. Trees at four of the sites generally appeared healthy with few or no signs of decline and only a few with obvious signs and symptoms of infestation by A. planipennis. At the fifth site, obvious crown decline and signs of infestation were apparent on about one-quarter of trees.
# Green prism sticky traps (0.30 cm×35.00 cm×58.75 cm) (Synergy Semiochemicals Corp., Burnaby, BC) were used in all field trials, deployed using modified umbrella rig spreaders (Zing Products, Westport, Mass.). Traps were spaced 20-25 m apart and lure treatments replicated in randomized complete block designs. Traps were deployed either using ropes tied between two trees or using a single line over a canopy branch, as described further below for each specific experimental objective. Traps were typically checked every 2 wk and A. planipennis were collected, counted, and sexed.
# Experiment 2 was a 2×2×2 factorial experiment designed to test the effects of (3Z)-lactone, (3Z)-hexenol, trap height, and their interactions on numbers of A. planipennis captured on sticky, dark green (540-nm wavelength) (Francese et al 2010a) prism traps. Traps were baited with either (3Z)-lactone, (3Z)-hexenol, (3Z)-lactone+(3Z)-hexenol, or neither compound (unbaited control) and all treatments were deployed both below the canopy or in the mid-canopy. Traps placed below the canopy were suspended from ropes tied between two trees so the trap was 1-1.5 m from either tree and the top of the trap was 1.5-2 m above the ground. Traps in the canopy were deployed from a single line looped over a mid-canopy branch such that traps were 1-1.5 m from the main stem and their tops were 6 m above ground. (3Z)-Lactone was loaded onto rubber septa lures at a dosage of 3 mg/lure. Release rates of the (3Z)-lactone and (3Z)-hexenol were 60-70 μg/day and 50-100 mg/day, respectively at 25° C. Traps were in the field from 8 June-5 August, with one block at one site (Nauvoo Ranch), 5 blocks at a second site (LaSalle, the one white ash plantation), and 4 blocks at a third site (Brook Line). The 3 mg (3Z)-lactone lures were estimated to maintain adequate release rates for a minimum of three weeks and thus were replaced after three weeks; (3Z)-hexenol lures were not replaced during the experiment.
# Numbers of A. planipennis captured in the trapping experiments were subjected to ANOVA separately for males and females. […]
structure (smiles),measurement,value
"O=C1C/C=C\CCCCCCCCO1 [(3Z)-lactone, (3Z)-dodecen-12-olide]","mean capture of males per trap, effect of presence of the lure component",significantly and positively affected
same,"mean catch of females, effect of the lure component",not
